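Interpolation was linear, between the two tested concentrations surrounding the appropriate level; five concentrations were tested over 48 hours in 96-well plates. The concentration for 50% growth inhibition is given as GI50. TGI: concentration producing complete growth inhibition.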
Tests used:
Assay in all cases: NCI-60 cell line screen, 48 h
[1] = system: KM12 colon
[2] = system: MOLT-4 leukemia
[3] = system: MDA-MB-231 breast
[4] = system: MALME-3M melanoma
[5] = system: SF-539 CNS
[6] = system: SW-620 colon
[7] = system: SF-295 CNS
[8] = system: NCI/ADR-RES ovarian
[9] = system: OVCAR-3 ovarian
[10] = system: TK-10 renal
[11] = system: SNB-75 CNS
[12] = system: SN12C renal
[13] = system: SK-MEL-5 melanoma
[14] = system: UACC-257 melanoma
[15] = system: SK-OV-3 ovarian
[16] = system: NCI-H226 lung
[17] = system: NCI-H23 lung
[18] = system: RPMI-8226 leukemia
[19] = system: ACHN renal
[20] = system: UO-31 renal
[21] = system: SR leukemia
[22] = system: MDA-MB-435
[23] = system: SF-268 CNS
[24] = system: T-47D breast
[25] = system: A549 NSCLC
[26] = system: SK-MEL-28 melanoma
[27] = system: CCRF-CEM leukemia
[28] = system: NCI-H460 lung
[29] = system: LOX IMVI melanoma
[30] = system: OVCAR-8 ovarian
[31] = system: MCF7 breast
[32] = system: SK-MEL-2 melanoma
[33] = system: M14 melanoma
[34] = system: HCT-15 colon
[35] = system: UACC-62 melanoma
[36] = system: HOP-62 NSCLC
[37] = system: DU-145 prostate
[38] = system: HL-60(TB) leukemia
[39] = system: HCC-2998 colon
[40] = system: CAKI-1 renal
[41] = system: SNB-19 CNS
[42] = system: IGROV1 ovarian
[43] = system: U251 CNS
[44] = system: A498 renal
[45] = system: OVCAR-4 ovarian
[46] = system: 786-0 renal
[47] = system: RXF 393 renal
[48] = system: HS 578T breast
[49] = system: HOP-92 NSCLC
[50] = system: NCI-H522 lung
[51] = system: HCT-116 colon
[52] = system: K-562 leukemia
[53] = system: BT-549 breast
[54] = system: OVCAR-5 ovarian
[55] = system: COLO 205 colon
[56] = system: HT29 colon
[57] = system: PC-3 prostate
[58] = system: EKVX NSCLC

Nc1n[nH]c2cccc(C#Cc3cccc(NC(=O)c4ccc(N5CCOCC5)c(C(F)(F)F)c4)c3)c12
GI50 [1]: 1290 nM
TGI [1]: 2910 nM
GI50 [2]: 1310 nM
TGI [2]: 5710 nM
GI50 [3]: 720 nM
TGI [3]: 2600 nM
GI50 [4]: 540 nM
TGI [4]: 2120 nM
GI50 [5]: 310 nM
TGI [5]: 1540 nM
GI50 [6]: 1130 nM
TGI [6]: 5950 nM
GI50 [7]: 1370 nM
TGI [7]: 5200 nM
GI50 [8]: 2250 nM
TGI [8]: 7650 nM
GI50 [9]: 1490 nM
TGI [9]: 5060 nM
GI50 [10]: 2050 nM
TGI [10]: 4400 nM
GI50 [11]: 1070 nM
TGI [11]: 2470 nM
GI50 [12]: 1560 nM
TGI [12]: 5800 nM
GI50 [13]: 1560 nM
TGI [13]: 3000 nM
GI50 [14]: 1770 nM
TGI [14]: 4380 nM
GI50 [15]: 2090 nM
TGI [15]: 5250 nM
GI50 [16]: 68.7 nM
TGI [16]: 8530 nM
GI50 [17]: 1370 nM
TGI [17]: 4600 nM
GI50 [18]: 1980 nM
TGI [18]: 6500 nM
GI50 [19]: 725 nM
TGI [19]: 4780 nM
GI50 [20]: 567 nM
TGI [20]: 2920 nM
GI50 [21]: 2400 nM
TGI [21]: > 100000 nM
GI50 [22]: 1090 nM
TGI [22]: 3310 nM
GI50 [23]: 1300 nM
TGI [23]: 5350 nM
GI50 [24]: 1060 nM
TGI [24]: 3680 nM
GI50 [25]: 1800 nM
TGI [25]: 6050 nM
GI50 [26]: 867 nM
TGI [26]: 2720 nM
GI50 [27]: 1360 nM
TGI [27]: 6580 nM
GI50 [28]: 1460 nM
TGI [28]: 3190 nM
GI50 [29]: 944 nM
TGI [29]: 2160 nM
GI50 [30]: 1920 nM
TGI [30]: 6830 nM
GI50 [31]: 1800 nM
TGI [31]: 7860 nM
GI50 [32]: 855 nM
TGI [32]: 3250 nM
GI50 [33]: 473 nM
TGI [33]: 2200 nM
GI50 [34]: 1540 nM
TGI [34]: 6440 nM
GI50 [35]: 622 nM
TGI [35]: 2550 nM
GI50 [36]: 1490 nM
TGI [36]: 4390 nM
GI50 [37]: 1810 nM
TGI [37]: 4370 nM
GI50 [38]: 1400 nM
TGI [38]: 10500 nM
GI50 [39]: 1320 nM
TGI [39]: 3150 nM
GI50 [40]: 1130 nM
TGI [40]: 2910 nM
GI50 [41]: 2750 nM
TGI [41]: 7390 nM
GI50 [42]: 682 nM
TGI [42]: 3540 nM
GI50 [43]: 2060 nM
TGI [43]: 7410 nM
GI50 [44]: 384 nM
TGI [44]: 2090 nM
GI50 [45]: 1060 nM
TGI [45]: 2980 nM
GI50 [46]: 2840 nM
TGI [46]: 7840 nM
GI50 [47]: 1020 nM
TGI [47]: 2830 nM
GI50 [48]: 508 nM
TGI [48]: 3770 nM
GI50 [49]: 768 nM
TGI [49]: 3140 nM
GI50 [50]: 1150 nM
TGI [50]: 3560 nM
GI50 [51]: 653 nM
TGI [51]: 2330 nM
TGI [52]: 13500 nM
GI50 [53]: 2080 nM
TGI [53]: 6800 nM
GI50 [54]: 599 nM
TGI [54]: 5260 nM
GI50 [55]: 525 nM
TGI [55]: 2330 nM
GI50 [56]: 632 nM
TGI [56]: 4550 nM
GI50 [57]: 1930 nM
TGI [57]: 6830 nM
GI50 [58]: 1610 nM
TGI [58]: 4170 nM

From PubChem BioAssay (NCI)
